Consider 1 compound from paper PMC6540056, “A Thermostable Aspergillus fumigatus GH7 Endoglucanase Over-Expressed in Pichia pastoris Stimulates Lignocellulosic Biomass Hydrolysis” (International Journal of Molecular Sciences, 2019).

This assay deals with T1, Af-EGL7 (Aspergillus fumigatus, UniProt Q4WCM9).
T1 construct: gene AFUA_6G01800; ORF without predicted signal peptide in pPICZalphaA, alpha-factor secretion signal, C-terminal vector tag with His6 kept, from Pichia pastoris X-33, N-glycosylated, about 70 kDa on SDS-PAGE; forward primer encodes EF-QQPAA at N-terminus
T1 sequence (Q4WCM9 21-460): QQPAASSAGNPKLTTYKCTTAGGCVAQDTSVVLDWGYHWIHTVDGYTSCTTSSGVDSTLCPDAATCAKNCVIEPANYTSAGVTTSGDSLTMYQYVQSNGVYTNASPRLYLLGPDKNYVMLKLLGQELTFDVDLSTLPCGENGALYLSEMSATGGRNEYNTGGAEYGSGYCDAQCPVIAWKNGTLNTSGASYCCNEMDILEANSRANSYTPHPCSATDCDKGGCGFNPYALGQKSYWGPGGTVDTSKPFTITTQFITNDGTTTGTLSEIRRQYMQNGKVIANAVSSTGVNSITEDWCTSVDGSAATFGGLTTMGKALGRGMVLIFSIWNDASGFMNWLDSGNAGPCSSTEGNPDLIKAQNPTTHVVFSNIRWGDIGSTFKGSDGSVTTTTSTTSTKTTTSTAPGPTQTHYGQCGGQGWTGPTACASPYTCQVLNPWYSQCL
The experiment in a line: colorimetric, Azo-Xyloglucan hydrolysis, […] nm. It is filed as biochemical. As to conditions: read-out: % inhibition at 50 mM.

Consider `OC[C@H]1O[C@@H](O[C@H]2[C@H](O)[C@@H](O)C(O)O[C@@H]2CO)[C@H](O)[C@@H](O)[C@@H]1O` (stereo partly shown) [cellobiose], for which the inhibition (as a rule, the share of the control response that was lost under treatment) at 50000 µM was determined as 35%.
